Test results taken from PMC9916883, “Betaine- and L-Carnitine-Based Ionic Liquids as Solubilising and Stabilising Agents for the Formulation of Antimicrobial Eye Drops Containing Diacerein” (International Journal of Molecular Sciences, 2023).
Several values for one entry are separate records, joined by “and”; a condition that tells them apart may be missing. Identical values can stand only once. Like-named read-outs stand apart in the source and are kept apart here.

How the values were obtained:
[1] = IL aggregates' size and zeta potential in aqueous solutions (DLS, Zetasizer); assay type: physicochemical
Procedure: The size distribution and zeta potential values of the ILs’ aggregates in aqueous solutions were evaluated by using a Zetasizer Nano ZS (Malvern) at 25 °C. The samples were prepared by adding an excess of either DIA or Rhe (5 mg/mL) to the aqueous IL solutions, incubating them for 30 min at 25 °C, and finally removing the excess drugs by centrifugation. […] In contrast, for PB solutions, the solutions were prepared in water, and […] of 100 mM pH 7 phosphate buffer was added per 1 mL of aqueous solution, directly in the cuvette, before the dynamic light scattering (DLS) analysis started. The concentrations of the solubilised drug were determined by UV–Vis analysis.

[2] = tested on: BALB/3T3 clone A31 fibroblast cells; test: Cytotoxicity screening (WST-1); assay type: cell-based, murine; conditions: Mus musculus, 4 h incubation, read-out: IC50 of cell viability
Procedure: BALB/3T3 clone A31 fibroblast cells were grown in Dulbecco’s Modified Eagle Medium (DMEM), supplemented with 2 mM L-glutamine, 1% penicillin/streptomycin, and 10% bovine calf serum. Cells were grown in a CO2 incubator (Heracell 150i series) at 37 °C and 5% CO2, with cells sub-cultured at 80–90% confluency. The cell monolayers were rinsed with PBS and treated with trypsin–EDTA to detach the cells before their resuspension in fresh media. A subconfluent monolayer of BALB/3T3 clone A31 fibroblast cells was trypsinised, centrifuged at 1000 rpm for 5 min, resuspended in growth medium, and counted.
A cytotoxicity screening was carried out for both ILs (range […]), as well as DIA and Rhe (0.5–200 mg/mL). Briefly, BALB/3T3 clone A31 fibroblast cells were seeded in each well of 96-well plates at a seeding density of 6 × 10^3 cells/well for 24 h, until 60–70% confluence was reached. After 24 h, the medium was then removed from each well and replaced with DMEM containing the samples.
After 4 h of incubation, the media were removed, replaced with fresh medium containing 10% WST-1 reagent solution, and maintained for 4 h at 37° C with 5% CO2. Afterwards, formazan dye absorbance was quantified at 450 nm with the reference wavelength at 655 nm by using a multilabel reader (BioTek 800/TS, Thermo Scientific).

[3] = tested on: type II porcine gastric mucin; test: Mucoadhesion by microrheological method; assay type: physicochemical
Procedure: The measurements were performed using the Zetasizer Nano ZS instrument, as previously reported. The microrheological characterisation of the ILs was performed using type II porcine gastric mucin. Porcine gastric mucin was used because no ocular mucins were available, and as it has already been used for ocular models. Briefly, a 3 mg/mL suspension of type II porcine gastric mucin was prepared in Milli-Q water and filtered through 0.45 µm cellulose acetate filters. Next, 0.27 M and 0.20 M solutions of both ionic liquids in deionised water were prepared (corresponding to concentrations 15% higher and lower than the CAC, respectively). One millilitre of each sample to be tested had the following composition: 5 µL of tracer (latex polystyrene particles, diameter 500 nm, Beckman), 7.38 mg/mL of IL solution, 0.3 mg of mucin, and 8.1 mg/mL of 5% NaCl. As a reference, 1 mL of sample was prepared with the same composition but without the ILs. All measurements were carried out in triplicate.

S. aureus W4 = test: Killing assay; assay type: cell-based, Staphylococcus aureus; conditions: 3 h incubation in 5% TSB, ILs 0.27 M; for bactericidal effect: DIA 0.34 M; for CFU after treatment (limit of detection): DIA 0.34 M if loaded
Procedure: (§1) To this end, the bacterial strains were grown in TSB until the exponential phase, and approximately 5 × 10^4 CFU/mL-contained in 10 μL-was added to 5 μL of TSB, 35 μL of water, and 50 μL of one of the following solutions corresponding to the eye drop compositions tested in vivo: Bet6 or Carn6 with 0.27 M or 0.34 M DIA, plain DIA (0.34 M) solution, or plain Bet6/plain Carn6, both at 0.27 M. All solutions were prepared in CB. The samples were incubated at 37 °C with shaking for 3 h. A sample containing 0.6% DMSO (corresponding to the highest concentration of DMSO tested) was used as a control. Following incubation, the samples were diluted 10-fold in LB and plated on tryptone soy agar (TSA, Oxoid) to determine the number of CFU. Bactericidal activity was defined as a reduction of at least 3 Log10 in the number of viable bacteria as compared to the inoculum.

P. aeruginosa ATCC 27853 = test: Killing assay; assay type: cell-based, Pseudomonas aeruginosa; conditions: 3 h incubation in 5% TSB, ILs 0.27 M; for bactericidal effect: DIA 0.34 M; for CFU after treatment (limit of detection): DIA 0.34 M if loaded
Procedure: as §1

[4] = Critical aggregation concentration (CAC) by surface tension; assay type: physicochemical; conditions: in water; for critical aggregation concentration (CAC): via surface tension
Procedure: The CACs of the ILs were determined by measuring the surface tension (Tensiometer du Nouy, Force Tensiometer K6 from KRÜSS (GmbH)) of aqueous solutions with increasing IL concentrations. Milli-Q H2O was used as a reference, with γ equal to 71 ± 1.3 mN/m at 25 ± 2 °C (Dortmund databank reference, 71.5 ± 0.5 mN/m 24 ± 1.4 °C). Surface tension values were plotted vs. logarithms of the ILs’ concentrations, linear fits were applied to the data points, and CAC was determined as the intersection of the two linear fits relative to the initial surface tension depression and the further plateau.

[5] = IL 180 μg/mL, DIA + (saturation), CB pH5
[6] = IL 180 μg/mL, Rhe + (saturation), PB pH7
[7] = IL 200 μg/mL, DIA + (saturation), CB pH5
[8] = IL 200 μg/mL, DIA + (saturation), H2O pH4
[9] = IL 200 μg/mL, Rhe + (saturation), H2O pH4
[10] = mucin with IL at 0.20 M (lower than CAC)
[11] = mucin with IL at 0.27 M (higher than CAC)

Structure (SMILES): CCCCCCOC(=O)C[N+](C)(C)C.[Br-] [Bet6, (2-hexyloxy-2-oxoethyl)-trimethylammonium bromide]
- PDI ([1]; IL 90 μg/mL, no drug, H2O pH4): 0.01 ± 0.002
- Ø (aggregates size) ([1]; IL 90 μg/mL, no drug, H2O pH4): 0.80 ± 0.03 nm
- PDI ([1]; IL 105 μg/mL, no drug, H2O pH4): 0.01 ± 0.005
- Ø (aggregates size) ([1]; IL 105 μg/mL, no drug, H2O pH4): 0.96 ±0.07 nm
- PDI ([1]; IL 170 μg/mL, no drug, H2O pH4): 0.01 ± 0.005
- Ø (aggregates size) ([1]; IL 170 μg/mL, no drug, H2O pH4): 1.96 ± 0.30 nm
- PDI [1, 5]: 0.01 ± 0.005
- Ø (aggregates size) [1, 5]: 1.73 ± 0.40 nm
- ζ (zeta potential) [1, 5]: 2.82 ± 1.17 mV
- PDI [1, 6]: 0.03 ± 0.005
- Ø (aggregates size) [1, 6]: 1.71 ± 0.49 nm
- ζ (zeta potential) [1, 6]: 5.77 ± 0.54 mV
- PDI ([1]; IL 180 μg/mL, no drug, CB pH5): 0.01 ± 0.005
- Ø (aggregates size) ([1]; IL 180 μg/mL, no drug, CB pH5): 1.76 ± 0.38 nm
- ζ (zeta potential) ([1]; IL 180 μg/mL, no drug, CB pH5): 0.65 ± 0.53 mV
- PDI ([1]; IL 180 μg/mL, no drug, PB pH7): 0.01 ± 0.005
- Ø (aggregates size) ([1]; IL 180 μg/mL, no drug, PB pH7): 1.79 ± 0.41 nm
- ζ (zeta potential) ([1]; IL 180 μg/mL, no drug, PB pH7): 8.93 ± 0.94 mV
- PDI [1, 7]: 0.02 ± 0.005
- Ø (aggregates size) [1, 7]: 2.01 ± 0.60 nm
- ζ (zeta potential) [1, 7]: 0.16 ± 1.85 mV
- PDI [1, 8]: 0.02 ± 0.005
- Ø (aggregates size) [1, 8]: 1.69 ± 0.92 nm
- ζ (zeta potential) [1, 8]: 9.53 ± 1.68 mV
- PDI [1, 9]: 0.01 ±0.005
- Ø (aggregates size) [1, 9]: 1.63 ± 0.21 nm
- ζ (zeta potential) [1, 9]: 8.17 ± 0.94 mV
- PDI ([1]; IL 200 μg/mL, no drug, CB pH5): 0.03 ± 0.005
- Ø (aggregates size) ([1]; IL 200 μg/mL, no drug, CB pH5): 1.97 ± 0.44 nm
- ζ (zeta potential) ([1]; IL 200 μg/mL, no drug, CB pH5): 2.62 ± 0.96 mV
- PDI ([1]; IL 200 μg/mL, no drug, H2O pH4): 0.01 ± 0.005
- Ø (aggregates size) ([1]; IL 200 μg/mL, no drug, H2O pH4): 1.81 ± 0.41 nm
- ζ (zeta potential) ([1]; IL 200 μg/mL, no drug, H2O pH4): 13.70 ± 1.60 mV
- IC50 [2]: 7500 µg/mL
- IC50 ([2]; murine fibroblasts): 26.8 mM
- Relative Viscosity [3, 10]: 0.79 ± 0.01 cP
- Relative Viscosity [3, 11]: 1.32 ± 0.13 cP
- bactericidal effect (S. aureus W4): strong bactericidal effect
- CFU after treatment (limit of detection) (S. aureus W4): < 100 CFU/mL
- bactericidal effect (P. aeruginosa ATCC 27853): strong bactericidal effect
- CFU after treatment (limit of detection) (P. aeruginosa ATCC 27853): < 100 CFU/mL
- surface tension at the CAC (σ) [4]: 34.2 mN/m
- critical aggregation concentration (CAC) [4]: 0.227 M and 0.227 ± 0.016 M

Structure (SMILES): CCCCCCOC(=O)C[C@@H](O)C[N+](C)(C)C [Carn6, (R)-(4-hexyloxy-2-hydroxy-4-oxobutyl)-trimethylammonium bromide]
- PDI ([1]; IL 90 μg/mL, no drug, H2O pH4): 0.01 ± 0.002
- Ø (aggregates size) ([1]; IL 90 μg/mL, no drug, H2O pH4): 1.17 ± 0.03 nm
- PDI ([1]; IL 105 μg/mL, no drug, H2O pH4): 0.01 ± 0.002
- Ø (aggregates size) ([1]; IL 105 μg/mL, no drug, H2O pH4): 1.53 ± 0.07 nm
- PDI ([1]; IL 170 μg/mL, no drug, H2O pH4): 0.03 ± 0.016
- Ø (aggregates size) ([1]; IL 170 μg/mL, no drug, H2O pH4): 2.12 ± 0.14 nm
- PDI [1, 5]: 0.01 ± 0.005
- Ø (aggregates size) [1, 5]: 2.24 ± 0.47 nm
- ζ (zeta potential) [1, 5]: 1.85 ± 0.47 mV
- PDI [1, 6]: 0.02 ± 0.005
- Ø (aggregates size) [1, 6]: 2.03 ± 0.46 nm
- ζ (zeta potential) [1, 6]: 9.38 ± 1.22 mV
- PDI ([1]; IL 180 μg/mL, no drug, CB pH5): 0.01 ± 0.005
- Ø (aggregates size) ([1]; IL 180 μg/mL, no drug, CB pH5): 2.04 ± 0.43 nm
- ζ (zeta potential) ([1]; IL 180 μg/mL, no drug, CB pH5): 2.56 ± 0.34 mV
- PDI ([1]; IL 180 μg/mL, no drug, PB pH7): 0.004± 0.005
- Ø (aggregates size) ([1]; IL 180 μg/mL, no drug, PB pH7): 1.91 ± 0.27 nm
- ζ (zeta potential) ([1]; IL 180 μg/mL, no drug, PB pH7): 10.70 ± 1.16 mV
- PDI [1, 7]: 0.01 ± 0.005
- Ø (aggregates size) [1, 7]: 2.40 ± 0.56 nm
- ζ (zeta potential) [1, 7]: 4.17 ± 0.20 mV
- PDI [1, 8]: 0.02 ± 0.005
- Ø (aggregates size) [1, 8]: 2.14 ± 0.55 nm
- ζ (zeta potential) [1, 8]: 12.20 ± 1.96 mV
- PDI [1, 9]: 0.02 ± 0.005
- Ø (aggregates size) [1, 9]: 2.11 ± 0.50 nm
- ζ (zeta potential) [1, 9]: 12.80 ± 1.27 mV
- PDI ([1]; IL 200 μg/mL, no drug, CB pH5): 0.07 ± 0.005
- Ø (aggregates size) ([1]; IL 200 μg/mL, no drug, CB pH5): 2.34 ± 0.66 nm
- ζ (zeta potential) ([1]; IL 200 μg/mL, no drug, CB pH5): 2.08 ± 0.13 mV
- PDI ([1]; IL 200 μg/mL, no drug, H2O pH4): 0.01 ± 0.005
- Ø (aggregates size) ([1]; IL 200 μg/mL, no drug, H2O pH4): 1.87 ± 0.42 nm
- ζ (zeta potential) ([1]; IL 200 μg/mL, no drug, H2O pH4): 14.30 ± 2.33 mV
- IC50 [2]: 9000 µg/mL
- IC50 ([2]; murine fibroblasts): 27.8 mM
- Relative Viscosity [3, 10]: 0.75 ± 0.01 cP
- Relative Viscosity [3, 11]: 1.31 ± 0.26 cP
- bactericidal effect (S. aureus W4): strong bactericidal effect
- CFU after treatment (limit of detection) (S. aureus W4): < 100 CFU/mL
- bactericidal effect (P. aeruginosa ATCC 27853): strong bactericidal effect
- CFU after treatment (limit of detection) (P. aeruginosa ATCC 27853): < 100 CFU/mL
- surface tension at the CAC (σ) [4]: 36.1 mN/m
- critical aggregation concentration (CAC) [4]: 0.226 M and 0.226 ± 0.020 M
